Results published in paper PMC7472781, “Inherited and Acquired Determinants of Hepatic CYP3A Activity in Humans” (Frontiers in Genetics, 2020).
Marks after values point to notes of the source that are not given here.

Key:
[1] = tested on: CYP3A; assay: Endogenous CYP3A biomarker in plasma: cholesterol and 4ß-OH-cholesterol (GC-MS, baseline blood samples); conditions: for Ratio (cholesterol): plasma; for Ratio (cholesterol) / Plasma concentration: value (range)
Method: Briefly, 10 μl of plasma were spiked with 10 μg of cholesterol-d5 as internal standard. After saponification with 0.5 ml of 1 M NaOH in 90% ethanol at 70°C for 1 h, 250 μl of water were added and the samples extracted with 2 ml of n-hexane. An aliquot of 50 μl of the extract was evaporated to dryness and derivatized with 20 μl of N,O-bis(trimethylsilyl)trifluoroacetamide (BSTFA) for 30 min at room temperature.
Briefly, 1 ml of plasma was spiked with 10 μg of BHT and 50 ng of the internal standard 4ß-hydroxycholesterol-d4 and saponified with 2.5 ml of 1 M NaOH in 90% ethanol at 70°C for 1 h under argon and then extracted with 1 ml of water and 5 ml of chloroform. The chloroform phase was evaporated to dryness in a stream of nitrogen and the residue dissolved in 1 ml of toluene. […] The cartridges were washed with 1 ml of hexane and 10 ml of 2-propanol in hexane (0.5% v/v) and then eluted with 2 ml of 2-propanol in hexane (30% v/v). The eluate was evaporated to dryness in a stream of nitrogen and derivatized with 20 μl of BSTFA for 30 min at room temperature. GC was performed on a J&W DB-5MS column (25 m, 0.2 mm i.d., 0.33 μm film thickness; Agilent) in the splitless mode. For the analysis of cholesterol, the GC oven program started at 150°C and was held for 1 min. […] For the analysis of 4ß-hydroxycholesterol the GC oven program startet at 150°C and was held for 1 min. Temperature was increased with 10°C/min to 250°C, then with 30°C/min to 300°C.

[2] = tested on: CYP3A; assay: Within- and between-subject variance and genetic component (Kalow) of the 4 CYP3A biomarkers, three occasions
Method: (§1) Predefined primary endpoint was midazolam AUC. All concentrations and pharmacokinetic parameters were determined on three independent occasions to compare intra- versus interindividual variation. […] In structural equation modeling of heritability and in the other multifactorial analyses the individual means from the measurements or parameters obtained on the three occasions were used. Using structural equation analysis, variation was separated into additive genetic (A), common environmental (C), and unique environmental (E) effects. The heritability is the proportion of the variance resulting from the genetic effect (A). In order to investigate the genetic, common environmental, and unique environmental effects of the different traits taken into account, the possible correlation between traits were fitted in multivariate ACE, AE, and CE biometrical models using the mcglm package for multivariate regression analysis in R. As an exploratory analysis, we computed the correlation between MZ and DZ twins based on an unstructured (equal mean and variance for MZ and DZ twins) model. In all models, the mean structure for each trait was specified as a linear function of the covariates age and sex.

[3] = tested on: CYP3A; assay: Twin correlations and structural equation modeling (ACE, AE, CE) of heritability of the CYP3A biomarkers
Method: as §1

[4] = tested on: CYP3A; assay: Multifactorial analysis of genetic and environmental effects on the CYP3A probe drugs and biomarkers; conditions: human, in vivo
Method: DNA was isolated from whole venous blood by automated solid phase extraction with the EZ1^TM DNA Blood 350 μl Kit using the Bio-robot EZ1^TM (both Qiagen, Hilden, Germany). The CYP3A4^∗1b and ^∗22 alleles as well as the CYP3A5^∗1/^∗3 polymorphism were genotyped by DNA sequencing using fluorescence-labeled dideoxynucleotides and detection via Gene Mapper v3.7 Software® (Applied Biosystems®, Foster City, United States). Zygosity was assessed by analyzing variants in 23 polymorphic genes. Monozygosity was concluded when there were no differences regarding the polymorphisms in both siblings of one twin pair.
as §1

[5] = other studies; ref Diczfalusy et al., 2008; cited from earlier work
[6] = tested on: CYP3A; assay: Endogenous CYP3A biomarker in 24-h urine: cortisol and 6ß-OH-cortisol (LC-MS-MS); conditions: value (range); for Amount in urine: 24 h urine; for Ratio (cortisol): urine
Method: Cholesterol and 4ß-OH cholesterol were measured in the baseline blood samples before drug administration. All samples were centrifuged for 10 min (4000 rpm) at 4°C and the plasma was stored at −20°C.
Calibration samples for cholesterol were prepared in isooctane with 10% 2-propanol in the concentration range from 1 to 30 μg. Calibration samples for 4ß-hydroxycholesterol were prepared in isooctane with 0.8% 2-propanol from 5 to 100 ng. […] Calibration samples were worked up as the samples, and analyzed together with the unknown samples. […] The concentration in unknown samples was obtained from the regression line.

[7] = tested on: CYP3A; conditions: strong inhibitors; ref Kim et al., 2006; Greenblatt and Harmatz, 2015; cited from earlier work

CC(C)CCC[C@@H](C)[C@H]1CC[C@H]2[C@@H]3CC=C4C[C@@H](O)CC[C@]4(C)[C@H]3CC[C@]12C [Cholesterol, cholesterol]
Ratio (cholesterol) ([1]; DZ twins): 0.17 (0.12 – 0.25)
Plasma concentration ([1]; DZ twins): 1.38 (0.94 – 2.12) mg/ml
Ratio (cholesterol) ([1]; MZ twins): 0.17 (0.01 – 0.35)
Plasma concentration ([1]; MZ twins): 1.39 (0.86 – 1.99) mg/ml

CC(C)CCC[C@@H](C)[C@H]1CC[C@H]2[C@@H]3CC=C4[C@@H](O)[C@@H](O)CC[C@]4(C)[C@H]3CC[C@]12C [4ß-OH-cholesterol, 4ß-hydroxycholesterol]
Plasma concentration ([1]; DZ twins): 23.07 (15.12 – 46.77) ng/ml
Plasma concentration ([1]; MZ twins): 24.56 (12.59 – 62.96) ng/ml
Plasma concentration, mean ([1]; all subjects, three occasions): 0.0259 µg/mL
Median plasma level ([1]; heterozygous carriers of active CYP3A5*1): 30.69 ng/mL
Median plasma level ([1]; homozygous carriers of CYP3A5*3): 23.01 ng/mL
Genetic component ([2]; from intra- and inter-individual variation, independent of twin status, AUC, plasma concentration or 24-h urine Ae): 0.812
Variance between subjects (Varb) of plasma concentration ([2]; human, in vivo): 86.5 ng/mL
Variance within subjects (Varw) of plasma concentration ([2]; three occasions): 14.3 ng/mL
C^2 (common environmental effect) ([3]; ACE model): 0.22 (0.26)
H^2 (heritability) ([3]; ACE model): 0.56 (0.26)*
Variation due to additive genetic (inherited) effects ([3]; ACE model): 56%
H^2 (heritability) ([3]; AE model): 0.79 (0.04)*
C^2 (common environmental effect) ([3]; CE model): 0.74 (0.04)*
rdz (correlation between DZ twins) ([3]; unstructured model): 0.53 (0.12)*
rmz (correlation between MZ twins) ([3]; unstructured model): 0.79 (0.04)*
Coefficient, CYP3A4*22 [4]: −8.21
Coefficient, CYP3A5*3 [4]: −6.30
Coefficient, age [4]: 0.16
Coefficient, sex [4]: −3.32
Coefficient, lean body weight ([4]; 0.2 mg): −0.20
Coefficient, smoking status ([4]; 0.2 mg): 3.28
Coefficient, oral contraceptives ([4]; po, 0.2 mg): −2.57
half-life [5]: ≥ 17 days

C[C@]12CCC(=O)C=C1CC[C@@H]1[C@@H]2[C@@H](O)C[C@@]2(C)[C@H]1CC[C@]2(O)C(=O)CO [Cortisol, cortisol]
Amount in urine ([6]; DZ twins): 32.14 (11.10 – 90.00) μg
Ratio (cortisol) ([6]; DZ twins): 6.75 (3.38 – 18.22)
Amount in urine ([6]; MZ twins): 35.85 (10.05 – 142.80) μg
Ratio (cortisol) ([6]; MZ twins): 6.29 (3.09 – 14.65)

CCC(C)n1ncn(-c2ccc(N3CCN(c4ccc(OCC5COC(Cn6cncn6)(c6ccc(Cl)cc6Cl)O5)cc4)CC3)cc2)c1=O (centres unmarked) [itraconazole]
CYP3A activity reduced to [7]: 10%
